The source of these data is ChEMBL document CHEMBL1201862, “PubChem BioAssay data set” (2004).

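Grown in 96-well plates, cells were treated for 48 hours with each compound at five concentrations. Insufficient inhibition: endpoint recorded as highest concentration tested. GI50 = concentration required for 50% inhibition of growth.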 Activity calls are given as the source filed them. No stated cut-off is given here; in the data, active = GI50 up to about 1.1 µM and inactive = higher.

Among the test systems are 786-0; A549; EKVX; HOP-62; K562; KM12; M14; MOLT-4; NCI-H522; RPMI-8226; SF-295; SF-539; SNB-19; UACC-257; UACC-62.
Experiment in all cases: NCI anticancer screen, dose series, 48 h

Consider `COc1cccc2c1C(=O)c1c(O)c3c(c(O)c1C2=O)C[C@@](O)(C(=O)CO)CC3OC1CC(N(C)CCOCC(OC(C)=O)OC(C)=O)C(O)C(C)O1` (stereo partly specified), for which the GI50 in the assay with 786-0, with A549, in the assay on EKVX, in the assay with HOP-62, in the assay on K562 and with KM12 was > 0.01 µM (active) throughout. Further, the GI50 in the assay on M14, in the assay with MOLT-4, in the assay with NCI-H522, with RPMI-8226, in the assay on SF-295 and in the assay on SF-539 was > 0.01 µM (active) throughout. In addition, the GI50 in the assay on SNB-19, in the assay with UACC-257 and in the assay with UACC-62 was > 0.01 µM (active) each time.
As to `COc1cc(OC(=O)c2c(O)cc(O)c(O)c2C)cc(C)c1C(=O)Oc1cc(C)c(C(=O)O)c(O)c1`, the GI50 with 786-0, in the assay on A549, with EKVX, with HOP-62, in the assay on K562 and in the assay on KM12 was > 100 µM (inactive) throughout. Further, the GI50 in the assay with M14, in the assay on MOLT-4, in the assay on NCI-H522, with RPMI-8226, in the assay on SF-295 and in the assay with SF-539 was > 100 µM (inactive) in each case. The GI50 in the assay on UACC-257 and in the assay on UACC-62 was > 100 µM (inactive) each time.
Consider `C[C@]12CCCC(=O)C1(O)C[C@H](C(=O)O)CC2` (stereo partly specified), for which the GI50 with 786-0, with A549, in the assay with HOP-62, in the assay with K562, with KM12 and in the assay on M14 was > 100 µM (inactive) in each case. In addition, the GI50 with MOLT-4, in the assay with NCI-H522, with RPMI-8226, in the assay on SF-295, in the assay on SF-539 and with SNB-19 was > 100 µM (inactive) throughout. The GI50 in the assay on UACC-257 and in the assay with UACC-62 was > 100 µM (inactive) each time.
For `CC(O)(c1ccc(OCCC[N+](C)(C)C)cc1)C(C)(O)c1ccc(OCCC[N+](C)(C)C)cc1` (stereo unspecified), the GI50 in the assay on 786-0, with A549, with EKVX, in the assay with HOP-62, in the assay with K562 and with KM12 was > 100 µM (inactive) throughout. For the same compound, the GI50 with M14, in the assay on NCI-H522, with SF-295, with SF-539, in the assay on SNB-19 and with UACC-257 was > 100 µM (inactive) throughout. For the same compound, the GI50 in the assay with UACC-62 is > 100 µM (inactive).
Consider `CC(C)(C)c1cc(CCC(=O)Nc2ccc(Cl)cc2Cl)nc(N)n1`, for which the GI50 in the assay with 786-0, in the assay with A549, with EKVX, in the assay on HOP-62, in the assay on K562 and with KM12 was > 100 µM (inactive) throughout. Besides, the GI50 in the assay with M14, with MOLT-4, in the assay with SF-295, with SF-539, in the assay on SNB-19 and in the assay on UACC-257 was > 100 µM (inactive) throughout. Further, in the assay on UACC-62, the GI50 was > 100 µM (inactive).
With `COc1cc(C2Oc3cc(-c4oc5cc(O)cc(O)c5c(=O)c4O)ccc3OC2CO)ccc1O` (stereo unspecified) [DEHYDROSILYLBIN], the GI50 in the assay with 786-0 was 8.55 µM (inactive); with A549, 9.14 µM (inactive); in the assay on HOP-62 it was 11.2 µM (inactive); in the assay with K562, 11 µM (inactive); with KM12 it was 20.1 µM (inactive); in the assay with M14, 12.4 µM (inactive). Also, the GI50 in the assay with MOLT-4 was 3.9 µM (inactive); with NCI-H522 it was 3.03 µM (inactive); in the assay on RPMI-8226, 4.41 µM (inactive); with SF-295 it was 10.7 µM (inactive); in the assay on SF-539, 4.24 µM (inactive); in the assay with SNB-19, 7.43 µM (inactive). Also, the results for the GI50 in the assay with UACC-257 and with UACC-62 were 32 µM (inactive) and 3.42 µM (inactive), respectively.
Take `Cc1nc(=O)n2c(C)n[nH]c2c1C(=O)Nc1cc(Cl)cc(Cl)c1`: the GI50 with 786-0 was 28.4 µM (inactive); in the assay with A549, 19.2 µM (inactive); with EKVX it was 31.1 µM (inactive); with HOP-62 it was 25.6 µM (inactive); in the assay on K562 it was 23.8 µM (inactive); with KM12, 31.9 µM (inactive). For the same compound, the GI50 in the assay with M14 is 35.6 µM (inactive); in the assay on MOLT-4, 26.9 µM (inactive); with NCI-H522, 6.01 µM (inactive); in the assay on RPMI-8226 it was 9.91 µM (inactive); in the assay on SF-295, 31.4 µM (inactive); with SF-539 it was 21.8 µM (inactive). Further, the GI50 in the assay with UACC-62 is 16.2 µM (inactive).
Turning to `CCOC(=O)c1c2cccccc2n2c(=O)cc(C)nc12`, the GI50 with 786-0, in the assay with A549, with EKVX, in the assay on HOP-62, in the assay on K562 and in the assay on KM12 was > 100 µM (inactive) throughout. Further, the GI50 with M14, in the assay with MOLT-4, in the assay with NCI-H522, in the assay with RPMI-8226, in the assay with SF-295 and in the assay with SF-539 was > 100 µM (inactive) throughout. The GI50 with SNB-19 is > 100 µM (inactive); with UACC-257 it was > 100 µM (inactive); with UACC-62, 71.6 µM (inactive).
Take `OCCC1(O)CCC(O)CC1` (stereo unspecified): the GI50 in the assay with 786-0, in the assay on A549, in the assay on EKVX, in the assay on HOP-62, in the assay on K562 and with KM12 was > 100 µM (inactive) each time. The GI50 with M14, with MOLT-4, in the assay on NCI-H522, with RPMI-8226, in the assay on SF-295 and with SF-539 was > 100 µM (inactive) in each case. Further, the GI50 in the assay on SNB-19, in the assay on UACC-257 and in the assay on UACC-62 was > 100 µM (inactive) throughout.
Turning to `Cc1ccc(NC(=O)CC2SC(Nc3cccc(Cl)c3C)=NC2=O)cc1` (stereo unspecified), the GI50 with 786-0 is > 100 µM (inactive); in the assay with A549 it was 51.1 µM (inactive); in the assay on EKVX it was 70 µM (inactive); in the assay on HOP-62, > 100 µM (inactive); in the assay with K562, 34.6 µM (inactive); with KM12 it was 40.9 µM (inactive). In addition, the GI50 in the assay on M14 was 38.8 µM (inactive); with MOLT-4 it was 33 µM (inactive); in the assay on RPMI-8226, 28.2 µM (inactive); in the assay with SF-295, 39.6 µM (inactive); in the assay with SF-539, 53.1 µM (inactive); in the assay on SNB-19 it was 40.4 µM (inactive). The GI50 in the assay with UACC-257 is 48 µM (inactive); with UACC-62 it was 42 µM (inactive).
Take `O=C1C(O)=C(CCCc2ccc(Oc3ccccc3)cc2)C(=O)c2ccccc21`: the GI50 was 5.64 µM (inactive) with 786-0; 11.6 µM (inactive) in the assay with EKVX; 10.7 µM (inactive) in the assay on HOP-62; 5.78 µM (inactive) with K562; 15.1 µM (inactive) in the assay with KM12; 10.5 µM (inactive) in the assay with M14. Also, the GI50 in the assay on MOLT-4 is 4.19 µM (inactive); with NCI-H522 it was 6.49 µM (inactive); with RPMI-8226, 5.52 µM (inactive); with SF-295, 7.78 µM (inactive); in the assay on SF-539 it was 6.46 µM (inactive); in the assay on SNB-19 it was 7.46 µM (inactive). Moreover, the GI50 in the assay on UACC-257 was 4.32 µM (inactive); with UACC-62, 3.94 µM (inactive).
Consider `COc1ccccc1NC(=O)C1=C(C)NC(C)=C(C(=O)Nc2ccccc2OC)C1/C=C/c1ccccc1`, for which the GI50 was > 100 µM (inactive) in the assay on 786-0; 80.9 µM (inactive) in the assay on A549; 89.3 µM (inactive) in the assay with EKVX; > 100 µM (inactive) in the assay on HOP-62; 50.2 µM (inactive) with K562; > 100 µM (inactive) in the assay with KM12. Besides, the GI50 was > 100 µM (inactive) with M14; 39.4 µM (inactive) in the assay on MOLT-4; 55.3 µM (inactive) in the assay on RPMI-8226; > 100 µM (inactive) in the assay on SF-295; > 100 µM (inactive) in the assay on SF-539; > 100 µM (inactive) in the assay with SNB-19. In addition, the GI50 in the assay with UACC-257 was > 100 µM (inactive); in the assay on UACC-62, 97.9 µM (inactive).
On to `COc1cc(C2c3cc4c(cc3[C@@H](N(C)C)[C@H]3COC(=O)C23)OCO4)cc(OC)c1O` (stereo partly specified), for which the GI50 is 33.2 µM (inactive) with 786-0; 45.9 µM (inactive) in the assay with A549; 64.4 µM (inactive) in the assay with EKVX; 50.4 µM (inactive) in the assay on HOP-62; 27.3 µM (inactive) with K562; 38.2 µM (inactive) in the assay on KM12. In addition, the GI50 with M14 is 31 µM (inactive); in the assay on MOLT-4, 38.2 µM (inactive); in the assay on NCI-H522, 4.4 µM (inactive); in the assay on RPMI-8226 it was 92.3 µM (inactive); with SF-295, > 10 µM (inactive); in the assay on SF-539 it was 21 µM (inactive). Besides, the GI50 with UACC-257 was 67.9 µM (inactive); with UACC-62 it was 33.7 µM (inactive).
For the compound `CC1CCC23COC(=O)C2C(O)CCC3C1(C)CC(O)c1ccoc1` (stereo unspecified), the GI50 in the assay on 786-0, in the assay with A549, with EKVX, with HOP-62, in the assay on K562 and with KM12 was > 100 µM (inactive) each time. In addition, the GI50 in the assay with M14, with MOLT-4, in the assay on NCI-H522, in the assay with SF-295, with SF-539 and in the assay on SNB-19 was > 100 µM (inactive) in each case. Further, the GI50 with UACC-257 and with UACC-62 was > 100 µM (inactive) in each case.
